Test results as given in patent US20050261130A1, “Novel surfactants and formulations” (Monsanto Technology LLC, priority 2000, published 2005).

Experiments:
[1] = Cloud point of aqueous concentrate compositions; format: physicochemical; conditions: 12 wt % surfactant
Description: For aqueous solution concentrates, high temperature storage stability is often indicated by a cloud point of about 50° C. or more. Cloud point of a composition is normally determined by heating the composition until the solution becomes cloudy, and then allowing the composition to cool, with agitation, while its temperature is continuously monitored. A temperature reading taken when the solution clears is a measure of cloud point. A cloud point of 50° C. or more is normally considered acceptable for most commercial purposes for a glyphosate SL formulation. Ideally the cloud point should be 60° C. or more, and the composition should withstand temperatures as low as about −10° C. for up to about 7 days without crystal growth, even in the presence of seed crystals of the glyphosate salt.
Cloud points were measured by heating a small amount of the material in a test tube until the solution became hazy or cloudy then removing the test tube from the heat and observing the temperature at which the solution became clear on cooling. The temperature at which the solution became clear is noted as the cloud point.
Cloud point was determined for certain liquid compositions of Examples 66-69 as follows. A sample of the composition in a test tube was heated in a water bath until it became cloudy. The test tube was then removed from the water bath and the sample stirred with a thermometer until it became clear. The temperature at which the sample became clear was recorded as the cloud point of the composition.

[2] = Brookfield viscosity (Model DV-11, Small Sample Adapter); format: physicochemical; conditions: 10° C.
Description: (§1) Viscosities were measured using a Haake Model VT500(Haake, Inc., Karlsruhe Germany) equipped with the appropriate MV series cup and bob sensor system at a shear rate of 45 sec^−1. The temperature was varied with the attached water bath. For a few samples for which insufficient sample was available the viscosities were measured with a Brookfield Model DV-11 equipped with a Small Sample Adapter (Brookfield Laboratories, Inc., Stoughton, Mass.).

[3] = Compatibility of surfactant with diammonium glyphosate concentrate (no phase separation, 50° C., 1 week); format: physicochemical; conditions: 50° C. oven 1 week; for Compatible w/31% a.e. diammonium glyphosate at 10 wt % loading: 31 wt. % a.e. diammonium glyphosate/10 wt. % surfactant; for Compatible w/37% a.e. diammonium glyphosate at 12 wt % loading: 37 wt. % a.e. diammonium glyphosate/12 wt. % surfactant
Description: For the 31 wt. % a.e. NH4^+glyphosate/10 wt. % surfactant compositions: • 1.48 g of 41.9 wt % a.e. aqueous glyphosate diammonium (1.7 eq) salt was weighed into a vial. To the same vial was added 0.2 g of surfactant and 0.32 g deionized water. The remainder of the protocol is the same as that described for the 31 wt % potassium glyphosate samples. The surfactants identified in Table 4 that were compatible at the 31% a.e. ammonium/10 wt. % surfactant loading are indicated in Table 5 below.
For the 37 wt. % a.e. NH4^+glyphosate/12 wt. % surfactant compositions: • 1.76 g of 41.9 wt % a.e. aqueous glyphosate diammonium (1.7 eq) salt was weighed into a vial. To the same vial was added […]. The remainder of the protocol is the same as that described for the 31 wt % potassium glyphosate samples. The surfactants identified in Table 4 that were compatible at the 37% a.e. ammonium/12 wt. % surfactant loading are indicated in Table 5 below.

[4] = Compatibility of surfactant with potassium glyphosate concentrate (no phase separation, 50° C., 1 week); format: physicochemical; conditions: 50° C. oven 1 week; for Compatible w/37% a.e. K + glyphosate at 12 wt % loading: 37 wt. % a.e. potassium glyphosate/12 wt. % surfactant; for Compatible w/40% a.e. K + glyphosate at 10% wt loading: 40 wt. % a.e. potassium glyphosate/10 wt. % surfactant; for Compatible w/45% a.e. K + glyphosate at 15% wt loading: 45 wt. % a.e. potassium glyphosate/15 wt. % surfactant
Description: For the 31 wt. % a.e. potassium glyphosate/10 wt. % surfactant compositions: 1.550 g of 40 wt. % a.e. aqueous glyphosate potassium salt solution was weighed into a vial. To the same vial, 0.200 g of surfactant was added. Enough deionized water was then added to the contents to bring the total weight to 2.000g. The mixture was stirred for 2 hours at room temperature and checked to see if a solution had been formed. If a solution was present, the test vial was allowed to stand at room temperature overnight. If a solution was still present, the test vial was placed in a 50° C. oven for 1 week. If no phase separation had occurred in one week, the surfactant being tested was considered “compatible.” All of the surfactants identified in Table 4 were compatible at the 31% a.e. potassium/10 wt. % surfactant loading.
For the 37 wt. % a.e. potassium glyphosate/12 wt. % surfactant compositions: 41.1 g of 45 wt. % a.e. aqueous glyphosate potassium salt was weighed to a container. To the same container was added 6.0 g of surfactant and 2.9 g deionized water for a total weight of 50.0 g. The remainder of the protocol is the same as that described for the 31 wt. % samples. The surfactants identified in Table 4 that were compatible at the 37% a.e. potassium/12 wt. % surfactant loading are indicated in Table 5 below.
For the 40 wt. % a.e. potassium glyphosate/10 wt. % surfactant compositions: 1.79 g of 45 wt. % a.e. aqueous glyphosate potassium salt was weighed into a vial. To the same vial was added 0.2 g of surfactant. The remainder of the protocol is the same as that described for the 31 wt. % samples. The surfactants identified in Table 4 that were compatible at the 40% a.e. potassium/10 wt. % surfactant loading are indicated in Table 5 below.
For the 45 wt. % a.e. potassium glyphosate/15 wt. % surfactant compositions: 1.100 g of solid mono potassium glyphosate was weighed into a vial. To the same vial was added 0.300 g surfactant. Enough deionized water was added to the vial to bring the final weight to 2.000 g. The remainder of the protocol is the same as that described for the 31 wt. % samples. The surfactants identified in Table 4 that were compatible at the 45% a.e. potassium/[…] are indicated in Table 5 below.

[5] = cited from earlier work
[6] = Density of formulations (Mettler DA-300 Density Meter); format: physicochemical; conditions: 20° C.; 50.0% glyphosate acid (61% potassium glyphosate) solution of Example A
Description: The density was then determined using a Mettler DA-300 Density Meter and the concentrations in grams per liter was calculated.

[7] = Specific gravity (Mettler DA-300 Density/Specific Gravity Meter); format: physicochemical; conditions: 20/15.6° C.; 30% a.e. by weight glyphosate monobasic salt solutions
Description: Specific gravities are measured using a Mettler DA-300 Density/Specific Gravity Meter.

[8] = Haake viscosity (Haake VT500, shear rate 45 sec^−1); format: physicochemical; conditions: 12 wt % surfactant
Description: as §1

[9] = system: Velvetleaf (ABUTH) and Japanese millet (ECHCF); test: Greenhouse herbicidal effectiveness, overall statements for both weeds; format: in vivo, Abutilon theophrasti; Echinochloa crus-galli; conditions: summary sentence of the respective Example
Source text: The herbicidal effectiveness data set forth herein report “inhibition” as a percentage following a standard procedure in the art which reflects a visual assessment of plant mortality and growth reduction by comparison with untreated plants, made by technicians specially trained to make and record such observations. In all cases, a single technician makes all assessments of percent inhibition within any one experiment or trial. Such measurements are relied upon and regularly reported by Monsanto Company in the course of its herbicide business.
The following procedure was used for testing compositions of the Examples to determine herbicidal effectiveness, except where otherwise indicated. […]
Pots were assigned to different treatments in a fully randomized experimental design with 6 replications. A set of pots was left untreated as a reference against which effects of the treatments could later be evaluated.
Application of glyphosate compositions was made by spraying with a track sprayer fitted with a 9501 E nozzle calibrated to deliver a spray volume of 93 liters per hectare (l/ha) at a pressure of 165 kilopascals (kPa). After treatment, pots were returned to the greenhouse until ready for evaluation. […]

Compound | Cloud Point Data 37% a.e. K + glyphosate at 12 wt % loading [1] [°C] | Compatible w/31% a.e. diammonium glyphosate at 10 wt % loading [3] | Compatible w/37% a.e. diammonium glyphosate at 12 wt % loading [3] | Compatible w/37% a.e. K + glyphosate at 12 wt % loading [4] | Compatible w/45% a.e. K + glyphosate at 15% wt loading [4] | Viscosity Data 37% a.e. K + glyphosate at 12 wt % loading, Haake Vis. ([8]; 0° C.) [cPs] | Viscosity Data 37% a.e. K + glyphosate at 12 wt % loading, Haake Vis. ([8]; 5° C.) [cPs] | Viscosity Data 37% a.e. K + glyphosate at 12 wt % loading, Haake Vis. ([8]; 10° C.) [cPs] | Viscosity Data 37% a.e. K + glyphosate at 12 wt % loading, Haake Vis. ([8]; 15° C.) [cPs] | Viscosity Data 37% a.e. K + glyphosate at 12 wt % loading, Haake Vis. ([8]; 25° C.) [cPs] | Viscosity Data 37% a.e. K + glyphosate at 12 wt % loading, Haake Vis. ([8]; −5° C.) | Viscosity Data 37% a.e. K + glyphosate at 12 wt % loading, Brookfield Vis. ([2]; Spindle 31, 12 rpm) | Viscosity Data 37% a.e. K + glyphosate at 12 wt % loading, Brookfield Vis. ([2]; Spindle 31, 60 rpm) | further results
CCCCCCCCNCC(O)C(O)C(O)C(O)CO (centres unmarked) [AA] | >90 | Yes | Yes | Yes | Yes |  |  |  |  |  |  |  |  | Viscosity Data 37% a.e. K + glyphosate at 12 wt % loading, Brookfield Viscosity ([2]; Spindle 31, 12 rpm): 12 rpm, 52.6 cPs; Viscosity Data 37% a.e. K + glyphosate at 12 wt % loading, Brookfield Viscosity ([2]; Spindle 31, 60 rpm): 60 rpm, 60.1 cPs; Compatible w/40% a.e. K + glyphosate at 10% wt loading [4]: Yes
O=C(O)CNCP(=O)(O)O [glyphosate, N-phosphonomethylglycine] |  |  |  |  |  |  |  |  |  |  |  |  |  | Solubility in water ([5]; 25° C.): 1.16 % by weight
O=C(O)CNCP(=O)([O-])O.[K+] [potassium, glyphosate potassium salt] |  |  |  |  |  |  |  |  |  |  |  |  |  | Solubility in pure water ([5]; 20° C., as salt): about 54 % by weight; Solubility in pure water, glyphosate acid equivalent ([5]; 20° C.): about 44 % glyphosate acid equivalent (a.e.) by weight; Density of the resulting solution [6]: approximately 1.4661 grams/milliliter; Specific Gravity [7]: 1.2539
CCCCN(CCCC)CCCN [F] | >90 |  |  | Yes | Yes | 273.01 | 173.57 | 142.38 | 110.89 | 57.29 | 400.48 cPs |  |  | Compatible w/40% a.e. K + glyphosate at 10% wt loading [4]: Yes
NCCOCCOCCN [DD] | >90 |  |  | Yes |  | 231.17 | 150.26 | 138.80 | 82.51 | 49.37 | 397.16 cPs |  |  | 
(C12-14)O(CHCH3CH2)O—(CHCH3CH2)N(EO)x(EO)y x + y = 5 [Composition M121] |  |  |  |  |  |  |  |  |  |  |  |  |  | Herbicidal effectiveness overall or on both ABUTH and ECHCF, comparison in words [9]: more effective for potentiating the IPA

Continued, in another order:

Cloud Point Data 37% a.e. K + glyphosate at 12 wt % loading [1] [°C] | Compatible w/31% a.e. diammonium glyphosate at 10 wt % loading [3] | Compatible w/37% a.e. diammonium glyphosate at 12 wt % loading [3] | Compatible w/37% a.e. K + glyphosate at 12 wt % loading [4] | Compatible w/45% a.e. K + glyphosate at 15% wt loading [4] | Viscosity Data 37% a.e. K + glyphosate at 12 wt % loading, Haake Vis. ([8]; 0° C.) [cPs] | Viscosity Data 37% a.e. K + glyphosate at 12 wt % loading, Haake Vis. ([8]; 5° C.) [cPs] | Viscosity Data 37% a.e. K + glyphosate at 12 wt % loading, Haake Vis. ([8]; 10° C.) [cPs] | Viscosity Data 37% a.e. K + glyphosate at 12 wt % loading, Haake Vis. ([8]; 15° C.) [cPs] | Viscosity Data 37% a.e. K + glyphosate at 12 wt % loading, Haake Vis. ([8]; 25° C.) [cPs] | Viscosity Data 37% a.e. K + glyphosate at 12 wt % loading, Haake Vis. ([8]; −5° C.) | Viscosity Data 37% a.e. K + glyphosate at 12 wt % loading, Brookfield Vis. ([2]; Spindle 31, 12 rpm) | Viscosity Data 37% a.e. K + glyphosate at 12 wt % loading, Brookfield Vis. ([2]; Spindle 31, 60 rpm) | Compound | further results
 | No | No | Yes |  |  |  |  |  |  |  | 12 rpm, 86.5 cp | 60 rpm, 88.2 cp | CCCCCCCCCCCCCCCCCCN(C)CC(O)C(O)C(O)C(O)CO (centres unmarked) [SS] | 
 | Yes | Yes | Yes | Yes |  |  |  |  |  |  | 12 rpm, 76.5 cp | 60 rpm, 78.2 cp | CCCCCCN(CCCN(CCCCCC)CC(O)C(O)C(O)C(O)CO)CC(O)C(O)C(O)C(O)CO (centres unmarked) [Surfactant AAA, 1,6 hexylaminoglucitol propane] | 
>90 |  |  | Yes |  | 2517 | 2269 | 1963 | 1420 | 1077 | −5° C., too thick |  |  | CC(C)CC(C)CC(C)COCCCNCCCN (centres unmarked) [R] | 
 | No | No | Yes |  |  |  |  |  |  |  | 12 rpm, 114 cp | 60 rpm, 113 cp | CCCCCCCCN(C)CC(O)C(O)C(O)C(O)CO (centres unmarked) [UU] | 
